Test results: patent US12472228B2, “Use of exosome-based delivery of NF-κB inhibitors” (Ilias Biologics Inc., priority 2020, dated 2025)

Legend:
[1] = system: THP-1 cells; test: LPS-stimulated THP-1 cells, cytokine secretion (ELISA); format: cell-based, human; conditions: JSH-23 50 μM, Exo-srIκB 5×10^6 particles
Protocol: (A) HEK293-NF-κB-luciferase cells (2×10^4 cells) were cultured either with Exo-Naïve or with Exo-srIκB 2×10^5 particles. After 24 h, the cells were treated with 0.5 ng/ml TNF-α for an additional 18 h. Luciferase activities were measured and normalized. (B) Exo-srIκB dose-dependently repressed NF-κB activation in NF-κB-luciferase cells. (C) THP-1 cells (5×10^5 cells) were stimulated with […] LPS and then treated with Exo-srIκBs 5×10^6 particles. The supernatants were collected and assayed for the production of TNF-α and monocyte chemoattractant protein (MCP)-1. […] Cells were harvested into a single-cell suspension and assessed through flow cytometry using specific phycoerythrin (PE)-conjugated antibodies against human intercellular cell adhesion molecule (ICAM)-1.
The TNF-α, IL-8 and MCP-1 levels in supernatants collected from THP-1 and HUVEC cultures were measured using commercial ELISA kits (R&D Systems, Minneapolis, MN, USA), and NF-κB activity in HUVECs was measured using the Trans AM NF-κB p65 kit (Active Motif, Carlsbad, CA, USA). TNF-α, CCL-4/macrophage inflammatory protein (MIP)-1β, IL-6, and IL-1β levels in mouse plasma collected through cardiac puncture at the indicated time points after the high-grade CLP procedure were measured using the Mouse Magnetic Luminex eScreening Assay kit (R&D Systems). […]

[2] = system: experimental ischemic AKI model; conditions: by lowering inflammatory cytokine expression and macrophages/monocyte accumulation; cited from earlier work
[3] = system: lung IRI model; conditions: decreases neutrophil infiltration and pulmonary edema; cited from earlier work

Molecule: Cc1ccc(NCCCc2ccccc2)c(N)c1 [JSH-23]
- inhibiting LPS-induced NF-κB activation and cytokine production: Exo-srIκB versus JSH-23 [1]: comparable effects

Molecule: infliximab: anti-TNF-α agent
- effect in the experimental ischemic AKI model [2]: protective effects

B1: srIκB: non-degradable IκBα protein with mutations at serine residues 32 and 36 (protein, listed as Homo sapiens)
chain: MFQAAERPQEWAMEGPRDGLKKERLLDDRHDAGLDAMKDEEYEQMVKELQEIRLEPQEVPRGSEPWKQQLTEDGDSFLHLAIIHEEKALTMEVIRQVKGDLAFLNFQNNLQQTPLHLAVITNQPEIAEALLGAGCDPELRDFRGNTPLHLACEQGCLASVGVLTQSCTTPHLHSILKATNYNGHTCLHLASIHGYLGIVELLVSLGADVNAQEPCNGRTALHLAVDLQNPDLVSLLLKCGADVNRVTYQGYSPYQLTWGRPSTRIQQQLGQLTLENLQMLPESEDEESYDTESEFTEFTEDELPYDDCVFGGQRLTL
- effect in the lung IRI model [3]: proven protective effects
